Test results published in ChEMBL document CHEMBL6127088, “Novel 2-aminothiazole analogues both as polymyxin E synergist and antimicrobial agent against multidrug-resistant Gram-positive bacteria” (2024).
Values after ≈ are worked out from the molar mass of the structure shown. Active and inactive are the calls of the source. The rule behind the calls is not given here.

Legend:
[1] = tested on: Mycolicibacterium smegmatis; assay: Antibacterial activity against Mycobacterium smegmatis ATCC 704 assessed as inhibition of bacterial growth incubated for 18 hrs by broth microdilution method; type: functional
Acinetobacter baumannii [2] = assay: Synergistic antibacterial activity against Acinetobacter baumannii Ab 1611 assessed as fold change in polymyxin-E MIC incubated for 18 hrs by broth microdilution method relative to polymyxin-E alone; type: functional
Pseudomonas aeruginosa [3] = assay: Synergistic antibacterial activity against Pseudomonas aeruginosa […] assessed as polymyxin-E MIC at 4 microg/ml incubated for 18 hrs by broth microdilution method; type: functional; conditions: dose 4 µg/ml
Klebsiella pneumoniae [4] = assay: Antibacterial activity against Klebsiella pneumoniae KPN 943 incubated for 18 hrs by broth microdilution method; type: functional
Acinetobacter baumannii [5] = assay: Antibacterial activity against Acinetobacter baumannii Ab 1613 incubated for 18 hrs by broth microdilution method; type: functional
[6] = tested on: Mycolicibacterium smegmatis; assay: Antibacterial activity against Mycobacterium smegmatis MC 2155 assessed as inhibition of bacterial growth incubated for 18 hrs by broth microdilution method; type: functional
Bacillus subtilis [7] = assay: Antimicrobial activity against Bacillus subtilis ATCC 20678 incubated for 18 hrs by broth microdilution method; type: functional
Staphylococcus aureus [8] = assay: Antibacterial activity against Staphylococcus aureus S1-1-33 assessed as inhibition of bacterial growth incubated for 18 hrs by broth microdilution method; type: functional
Acinetobacter baumannii [9] = assay: Antibacterial activity against Acinetobacter baumannii ATCC 19606 assessed as inhibition of bacterial growth at 4 microg/ml incubated for overnight in presence of 0.25 microg/ml polymyxin-E and measured at 24 hrs by time-kill assay; type: functional, organism-based; conditions: dose 4.0 µg/ml
Staphylococcus aureus [10] = assay: Antimicrobial activity against methicillin/ofloxacin-resistant Staphylococcus aureus ATCC 43300 assessed as minimum inhibitory concentration incubated for 18 hrs by broth microdilution method; type: functional
Pseudomonas aeruginosa [11] = assay: Synergistic antibacterial activity against Pseudomonas aeruginosa PAE 1051 assessed as fold change in polymyxin-E MIC incubated for 18 hrs by broth microdilution method relative to polymyxin-E alone; type: functional
Klebsiella pneumoniae [12] = assay: Synergistic antibacterial activity against Klebsiella pneumoniae KPN 1617 assessed as fold change in polymyxin-E MIC incubated for 18 hrs by broth microdilution method relative to polymyxin-E alone; type: functional
Staphylococcus aureus [13] = assay: Antibacterial activity against Staphylococcus aureus S1-1-38 assessed as inhibition of bacterial growth incubated for 18 hrs by broth microdilution method; type: functional
Staphylococcus aureus [14] = assay: Antibacterial activity against methicillin-resistant Staphylococcus aureus ATCC 43300 assessed as inhibition of bacterial growth at 2 microg/ml measured after 24 hrs by time-kill assay; type: functional; set-up: scale not given: the % may be the effect or the level left; conditions: dose 2 µg/ml
Acinetobacter baumannii [15] = assay: Synergistic antibacterial activity against Acinetobacter baumannii ATCC 19606 assessed as fold change in polymyxin-E MIC incubated for 18 hrs by broth microdilution method relative to polymyxin-E alone; type: functional
Klebsiella pneumoniae [16] = assay: Synergistic antibacterial activity against Klebsiella pneumoniae KPN 943 assessed as fractional inhibitory concentration index at 4 microg/ml incubated for 18 to 20 hrs by chequerboard assay; type: functional; conditions: dose 4 µg/ml; time 18-20 hrs
Acinetobacter baumannii [17] = assay: Synergistic antibacterial activity against Acinetobacter baumannii Ab 1613 assessed as fractional inhibitory concentration index at 4 microg/ml incubated for 18 to 20 hrs by chequerboard assay; type: functional; conditions: dose 4 µg/ml; time 18-20 hrs
Acinetobacter baumannii [18] = assay: Synergistic antibacterial activity against Acinetobacter baumannii Ab 1613 assessed as polymyxin-E MIC at 4 microg/ml incubated for 18 hrs by broth microdilution method; type: functional; conditions: dose 4 µg/ml
Pseudomonas aeruginosa [19] = assay: Synergistic antibacterial activity against Pseudomonas aeruginosa […] assessed as fold change in polymyxin-E MIC incubated for 18 hrs by broth microdilution method relative to polymyxin-E alone; type: functional
Cell membrane [20] = assay: Induction of outer membrane disruption in Acinetobacter baumannii ATCC 19606 assessed as decrease in fluorescence intensity by NPN dye based fluorescence analysis; type: subcellular
Klebsiella pneumoniae [21] = assay: Antibacterial activity against Klebsiella pneumoniae KPN 1617 incubated for 18 hrs by broth microdilution method; type: functional
Pseudomonas aeruginosa [22] = assay: Synergistic antibacterial activity against Pseudomonas aeruginosa PAE 1051 assessed as fractional inhibitory concentration index at 4 microg/ml incubated for 18 to 20 hrs by chequerboard assay; type: functional; conditions: dose 4 µg/ml; time 18-20 hrs
Acinetobacter baumannii [23] = assay: Antibacterial activity against Acinetobacter baumannii ATCC 19606 assessed as inhibition of bacterial growth at 16 microg/ml incubated for overnight by time-kill assay; type: functional, organism-based; conditions: dose 16.0 µg/ml
[24] = tested on: Mycolicibacterium smegmatis; assay: Antibacterial activity against Mycobacterium smegmatis ARC 700044 assessed as inhibition of bacterial growth incubated for 18 hrs by broth microdilution method; type: functional
Bacillus subtilis [25] = assay: Antibacterial activity against Bacillus subtilis 168 assessed as inhibition of bacterial growth incubated for 18 hrs by broth microdilution method; type: functional
Pseudomonas aeruginosa [26] = assay: Synergistic antibacterial activity against Pseudomonas aeruginosa PAE 3887 assessed as fold change in polymyxin-E MIC incubated for 18 hrs by broth microdilution method relative to polymyxin-E alone; type: functional
Pseudomonas aeruginosa [27] = assay: Antibacterial activity against Pseudomonas aeruginosa ATCC 13883 incubated for 18 hrs by broth microdilution method; type: functional
Bacillus subtilis [28] = assay: Antibacterial activity against Bacillus subtilis ATCC 6633 assessed as inhibition of bacterial growth incubated for 18 hrs by broth microdilution method; type: functional
Acinetobacter baumannii [29] = assay: Synergistic antibacterial activity against Acinetobacter baumannii ATCC 19606 assessed as fractional inhibitory concentration index at 4 microg/ml incubated for 18 to 20 hrs by chequerboard assay; type: functional; conditions: dose 4 µg/ml; time 18-20 hrs
Bacillus subtilis [30] = assay: Antibacterial activity against Bacillus subtilis CMCC(B) 63501 assessed as inhibition of bacterial growth incubated for 18 hrs by broth microdilution method; type: functional
Staphylococcus aureus [31] = assay: Antibacterial activity against methicillin-resistant Staphylococcus aureus ATCC 43300 assessed as inhibition of bacterial growth at 0.5 to 1 microg/ml measured between 8 to 24 hrs by time-kill assay; type: functional, organism-based; conditions: dose 0.5-1 µg/ml, time 8-24 hrs
Staphylococcus aureus [32] = assay: Antibacterial activity against Staphylococcus aureus LAC assessed as inhibition of bacterial growth incubated for 18 hrs by broth microdilution method; type: functional
Klebsiella pneumoniae [33] = assay: Synergistic antibacterial activity against Klebsiella pneumoniae KPN 943 assessed as polymyxin-E MIC at 4 microg/ml incubated for 18 hrs by broth microdilution method; type: functional; conditions: dose 4 µg/ml
Enterococcus faecalis = assay: Antimicrobial activity against vancomycin-resistant Enterococcus faecalis ATCC 51299 assessed as minimum inhibitory concentration incubated for 18 hrs by broth microdilution method; type: functional
Cell membrane [34] = assay: Disruption of cell membrane integrity in Acinetobacter baumannii ATCC 19606 assessed as displacement of outer membrane at 4 microg/ml incubated for 1 hrs by TEM analysis; type: subcellular; conditions: dose 4.0 µg/ml
Staphylococcus aureus [35] = assay: Antibacterial activity against methicillin-resistant Staphylococcus aureus ATCC 43300 assessed as inhibition of bacterial growth at 0.5 to 1 microg/ml incubated for 0 to 8 hrs by time-kill assay; type: functional, organism-based; conditions: dose 0.5-1 µg/ml, time 0-8 hrs
Klebsiella pneumoniae [36] = assay: Synergistic antibacterial activity against Klebsiella pneumoniae SIPI-KPN-1712 assessed as fractional inhibitory concentration index at 4 microg/ml incubated for 18 to 20 hrs by chequerboard assay; type: functional; conditions: dose 4 µg/ml; time 18-20 hrs

In the case of `C/C(=N\Nc1ccccn1)c1csc(Nc2cc(F)cc(C(F)(F)F)c2)n1`, the MIC [1] is reported as 1 µg/mL (≈ 2.53 µM), the “fold change (FC)” value (Acinetobacter baumannii [2]) is reported as 16 and the MIC (Pseudomonas aeruginosa [3]) is reported as 1 µg/mL. The MIC (Klebsiella pneumoniae [4]) was > 128 µg/mL, the MIC (Acinetobacter baumannii [5]) was > 128 µg/mL and the MIC [6] was 1 µg/mL (≈ 2.53 µM). For the same compound, the MIC (Bacillus subtilis [7]) was 1 µg/mL (≈ 2.53 µM), the MIC (Staphylococcus aureus [8]) was 2 µg/mL (≈ 5.06 µM) and the Activity (Acinetobacter baumannii [9]) was “Active”. For the same compound, the MIC (Staphylococcus aureus [10]) was 1 µg/mL (≈ 2.53 µM), the “fold change (FC)” value (Pseudomonas aeruginosa [11]) was 4 and the “fold change (FC)” value (Klebsiella pneumoniae [12]) was 16. For the same compound, the MIC (Staphylococcus aureus [13]) was 0.5 µg/mL (≈ 1.26 µM), the Activity (Staphylococcus aureus [14]) was 100% and the “fold change (FC)” value (Acinetobacter baumannii [15]) was 16. The “fractional inhibitory concentration index (FICI)” value (Klebsiella pneumoniae [16]) was 0.062, the “fractional inhibitory concentration index (FICI)” value (Acinetobacter baumannii [17]) was 0.281 and the MIC (Acinetobacter baumannii [18]) was 0.125 µg/mL. For the same compound, the “fold change (FC)” value (Pseudomonas aeruginosa [19]) was 2, the Activity (Cell membrane [20]) was “Active” and the MIC (Klebsiella pneumoniae [21]) was > 128 µg/mL. The “fractional inhibitory concentration index (FICI)” value (Pseudomonas aeruginosa [22]) was 0.281, the Activity (Acinetobacter baumannii [23]) was “inactive” and the MIC [24] was 2 µg/mL (≈ 5.06 µM). For the same compound, the MIC (Bacillus subtilis [25]) was 1 µg/mL (≈ 2.53 µM), the “fold change (FC)” value (Pseudomonas aeruginosa [26]) was 16 and the MIC (Pseudomonas aeruginosa [27]) was > 128 µg/mL. The MIC (Bacillus subtilis [28]) was 2 µg/mL (≈ 5.06 µM), the “fractional inhibitory concentration index (FICI)” value (Acinetobacter baumannii [29]) was 0.094 and the MIC (Bacillus subtilis [30]) was 0.5 µg/mL (≈ 1.26 µM). For the same compound, the Activity (Staphylococcus aureus [31]) was “inactive”, the MIC (Staphylococcus aureus [32]) was 1 µg/mL (≈ 2.53 µM) and the MIC (Klebsiella pneumoniae [33]) was 0.125 µg/mL. For the same compound, the MIC (Enterococcus faecalis) was 1 µg/mL (≈ 2.53 µM), the Activity (Cell membrane [34]) was “Active” and the Activity (Staphylococcus aureus [35]) was “Active”. For the same compound, the “fractional inhibitory concentration index (FICI)” value (Klebsiella pneumoniae [36]) was 0.094.
